In patent US20070141086A1 (priority 2003, published 2007):

System: virulent culture of M. haemolytica (Oklahoma State strain)
Assay type: in vivo, beef calves
Conditions: conclusion over vaccination and challenge study in calves
Procedure: For the vaccination challenge, 5 ml of a virulent culture of M. haemolytica (Oklahoma State strain) was administered by transthoracic injection into the right and left caudal lung lobes of each calf (10 ml of culture per calf) on Day 34 of the study. The inoculum contained approximately 5.6×10^8 CFU/ml.
One animal in T01 died immediately following challenge due to pulmonary hemorrhage as a result of challenge administration; thus its lung lesion data was excluded from the analysis. One animal in T03 was found dead on Day 37 as a result of severe pneumonia but was necropsied and its lung data was analyzed along with the data from the other animals. There were no significant differences between the treatment groups (P>0.05).

Substance: Tulathromycin
- Overall adjuvant function / immune response indicators (antibody production, attitude, respiratory effort, lung lesions): appeared to effectively replace the adjuvant
